What was measured:
Rattus norvegicus [1] = experiment: Antipsychotic activity in Sprague-Dawley rat […] assessed as reversal of MK-801-induced locomotion at 3 mg/kg, ip administered 2 hrs prior to MK-801 challenge measured every 5 mins for 1 hr starting 15 mins post MK-801 injection relative to vehicle-treated control; assay type: functional; details: route intraperitoneal
Rattus norvegicus [2] = experiment: Antipsychotic activity in Sprague-Dawley rat […] assessed as reversal of MK-801-induced stereotypy at 3 mg/kg, ip administered 2 hrs prior to MK-801 challenge measured every 5 mins for 1 hr starting 15 mins post MK-801 injection relative to vehicle-treated control; assay type: functional; details: route intraperitoneal
Rattus norvegicus [3] = experiment: Antipsychotic activity in Sprague-Dawley rat […] assessed as reversal of MK-801-induced ataxia at 3 mg/kg, ip administered 2 hrs prior to MK-801 challenge measured every 5 mins for 1 hr starting 15 mins post MK-801 injection relative to vehicle-treated control; assay type: functional; details: route intraperitoneal
Rattus norvegicus [4] = experiment: Antipsychotic activity in Sprague-Dawley rat conditioned avoidance response model assessed as avoidance of shock at 3 mg/kg, ip measured after 30 mins relative to vehicle-treated control; assay type: functional; details: route intraperitoneal
[5] = target: T1, cAMP and cAMP-inhibited cGMP 3',5'-cyclic phosphodiesterase 10A (Homo sapiens, UniProt Q9Y233); experiment: Inhibition of human recombinant GST-tagged PDE10A using [3H]-cAMP as substrate at 1 uM after 30 mins by scintillation proximity assay
T1 sequence (Q9Y233 whole entry): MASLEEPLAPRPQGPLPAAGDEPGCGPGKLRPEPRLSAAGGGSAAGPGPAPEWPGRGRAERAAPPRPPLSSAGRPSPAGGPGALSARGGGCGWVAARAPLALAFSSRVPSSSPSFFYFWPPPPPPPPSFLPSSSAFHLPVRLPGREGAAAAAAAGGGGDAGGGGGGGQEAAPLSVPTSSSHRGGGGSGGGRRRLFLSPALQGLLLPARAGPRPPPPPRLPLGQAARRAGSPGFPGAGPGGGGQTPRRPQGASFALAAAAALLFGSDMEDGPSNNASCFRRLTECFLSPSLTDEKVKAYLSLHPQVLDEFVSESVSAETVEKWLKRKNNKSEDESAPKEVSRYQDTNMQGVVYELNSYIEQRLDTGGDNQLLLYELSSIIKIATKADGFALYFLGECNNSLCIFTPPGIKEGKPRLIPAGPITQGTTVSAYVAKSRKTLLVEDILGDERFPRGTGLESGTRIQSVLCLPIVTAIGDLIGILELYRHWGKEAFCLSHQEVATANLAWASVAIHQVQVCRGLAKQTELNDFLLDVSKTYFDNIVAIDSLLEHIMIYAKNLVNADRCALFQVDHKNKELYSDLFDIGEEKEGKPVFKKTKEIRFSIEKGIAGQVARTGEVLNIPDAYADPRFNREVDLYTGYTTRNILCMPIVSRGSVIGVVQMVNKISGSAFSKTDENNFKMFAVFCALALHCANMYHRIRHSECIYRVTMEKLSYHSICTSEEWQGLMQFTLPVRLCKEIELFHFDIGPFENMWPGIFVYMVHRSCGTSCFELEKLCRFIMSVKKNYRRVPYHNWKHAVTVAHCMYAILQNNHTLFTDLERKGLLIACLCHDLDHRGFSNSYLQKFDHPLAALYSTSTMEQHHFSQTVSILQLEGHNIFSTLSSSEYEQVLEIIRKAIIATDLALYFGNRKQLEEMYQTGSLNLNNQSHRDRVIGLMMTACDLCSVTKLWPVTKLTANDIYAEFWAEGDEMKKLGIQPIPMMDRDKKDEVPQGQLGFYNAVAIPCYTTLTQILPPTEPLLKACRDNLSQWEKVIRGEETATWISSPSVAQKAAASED

[6] = target: T1, cAMP and cAMP-inhibited cGMP 3',5'-cyclic phosphodiesterase 10A; experiment: Inhibition of human recombinant GST-tagged PDE10A using [3H]-cAMP as substrate after 30 mins by scintillation proximity assay
[7] = target: T2, cAMP and cAMP-inhibited cGMP 3',5'-cyclic phosphodiesterase 10A (Rattus norvegicus, UniProt Q9QYJ6); experiment: Inhibition of rat recombinant GST-tagged PDE10A using [3H]-cAMP as substrate by scintillation proximity assay
T2 sequence (Q9QYJ6 whole entry): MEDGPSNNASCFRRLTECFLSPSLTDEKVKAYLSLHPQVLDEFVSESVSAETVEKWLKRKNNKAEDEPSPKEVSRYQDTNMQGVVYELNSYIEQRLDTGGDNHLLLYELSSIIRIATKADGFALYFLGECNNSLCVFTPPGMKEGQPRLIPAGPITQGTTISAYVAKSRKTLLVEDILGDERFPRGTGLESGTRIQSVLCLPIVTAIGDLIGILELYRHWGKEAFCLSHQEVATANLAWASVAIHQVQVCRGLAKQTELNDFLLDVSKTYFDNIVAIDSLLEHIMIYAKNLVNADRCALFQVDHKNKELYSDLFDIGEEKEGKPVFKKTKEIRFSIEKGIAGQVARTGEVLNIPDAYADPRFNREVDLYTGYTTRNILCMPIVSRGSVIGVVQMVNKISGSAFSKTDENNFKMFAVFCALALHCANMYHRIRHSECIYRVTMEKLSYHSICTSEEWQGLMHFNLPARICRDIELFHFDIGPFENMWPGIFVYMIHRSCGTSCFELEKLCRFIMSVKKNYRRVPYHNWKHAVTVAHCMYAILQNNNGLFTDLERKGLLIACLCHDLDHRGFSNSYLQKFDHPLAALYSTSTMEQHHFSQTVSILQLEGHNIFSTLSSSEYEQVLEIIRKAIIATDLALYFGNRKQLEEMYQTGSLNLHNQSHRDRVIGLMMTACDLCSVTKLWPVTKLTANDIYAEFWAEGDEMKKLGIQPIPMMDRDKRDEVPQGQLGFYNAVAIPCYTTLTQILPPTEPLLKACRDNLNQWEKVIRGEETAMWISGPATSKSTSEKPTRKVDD

[8] = target: T3, cAMP and cAMP-inhibited cGMP 3',5'-cyclic phosphodiesterase 10A (Mus musculus, UniProt Q8CA95); experiment: Inhibition of mouse recombinant GST-tagged PDE10A using [3H]-cAMP as substrate after 30 mins by scintillation proximity assay
T3 sequence (Q8CA95 whole entry): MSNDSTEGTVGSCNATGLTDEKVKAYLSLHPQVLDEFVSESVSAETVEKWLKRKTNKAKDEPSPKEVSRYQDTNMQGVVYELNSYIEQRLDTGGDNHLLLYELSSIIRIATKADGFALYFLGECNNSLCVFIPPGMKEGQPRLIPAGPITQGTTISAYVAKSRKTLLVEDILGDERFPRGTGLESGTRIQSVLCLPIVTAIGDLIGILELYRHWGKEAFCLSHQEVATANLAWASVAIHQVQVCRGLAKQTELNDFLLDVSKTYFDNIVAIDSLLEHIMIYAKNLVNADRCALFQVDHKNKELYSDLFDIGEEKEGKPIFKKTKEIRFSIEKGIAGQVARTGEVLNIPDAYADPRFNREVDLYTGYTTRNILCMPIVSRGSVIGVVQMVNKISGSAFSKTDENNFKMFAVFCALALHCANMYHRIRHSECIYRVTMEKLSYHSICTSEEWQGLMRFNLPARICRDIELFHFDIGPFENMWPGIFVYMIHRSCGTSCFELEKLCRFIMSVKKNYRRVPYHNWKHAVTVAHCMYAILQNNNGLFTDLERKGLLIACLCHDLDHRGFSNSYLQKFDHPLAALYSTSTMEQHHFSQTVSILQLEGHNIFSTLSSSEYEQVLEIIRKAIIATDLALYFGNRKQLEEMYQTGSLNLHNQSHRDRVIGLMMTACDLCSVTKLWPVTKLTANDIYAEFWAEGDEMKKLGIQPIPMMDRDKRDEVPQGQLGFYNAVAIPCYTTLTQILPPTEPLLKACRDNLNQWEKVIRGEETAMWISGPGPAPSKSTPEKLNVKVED

[9] = target: cGMP-dependent 3',5'-cyclic phosphodiesterase (Homo sapiens) (UniProt O00408); experiment: Inhibition of human recombinant PDE2A using cAMP as substrate at 1 uM after 30 mins by HTRF method
[10] = target: cGMP-dependent 3',5'-cyclic phosphodiesterase (Homo sapiens) (UniProt O00408); experiment: Inhibition of human recombinant PDE2A using cAMP as substrate at 10 uM after 30 mins by HTRF method
[11] = target: cGMP-inhibited 3',5'-cyclic phosphodiesterase 3A (Homo sapiens) (UniProt Q14432); experiment: Inhibition of human recombinant PDE3A using cAMP as substrate at 1 uM after 30 mins by HTRF method
Sequence of cGMP-inhibited 3',5'-cyclic phosphodiesterase 3A (Homo sapiens) (Q14432 whole entry): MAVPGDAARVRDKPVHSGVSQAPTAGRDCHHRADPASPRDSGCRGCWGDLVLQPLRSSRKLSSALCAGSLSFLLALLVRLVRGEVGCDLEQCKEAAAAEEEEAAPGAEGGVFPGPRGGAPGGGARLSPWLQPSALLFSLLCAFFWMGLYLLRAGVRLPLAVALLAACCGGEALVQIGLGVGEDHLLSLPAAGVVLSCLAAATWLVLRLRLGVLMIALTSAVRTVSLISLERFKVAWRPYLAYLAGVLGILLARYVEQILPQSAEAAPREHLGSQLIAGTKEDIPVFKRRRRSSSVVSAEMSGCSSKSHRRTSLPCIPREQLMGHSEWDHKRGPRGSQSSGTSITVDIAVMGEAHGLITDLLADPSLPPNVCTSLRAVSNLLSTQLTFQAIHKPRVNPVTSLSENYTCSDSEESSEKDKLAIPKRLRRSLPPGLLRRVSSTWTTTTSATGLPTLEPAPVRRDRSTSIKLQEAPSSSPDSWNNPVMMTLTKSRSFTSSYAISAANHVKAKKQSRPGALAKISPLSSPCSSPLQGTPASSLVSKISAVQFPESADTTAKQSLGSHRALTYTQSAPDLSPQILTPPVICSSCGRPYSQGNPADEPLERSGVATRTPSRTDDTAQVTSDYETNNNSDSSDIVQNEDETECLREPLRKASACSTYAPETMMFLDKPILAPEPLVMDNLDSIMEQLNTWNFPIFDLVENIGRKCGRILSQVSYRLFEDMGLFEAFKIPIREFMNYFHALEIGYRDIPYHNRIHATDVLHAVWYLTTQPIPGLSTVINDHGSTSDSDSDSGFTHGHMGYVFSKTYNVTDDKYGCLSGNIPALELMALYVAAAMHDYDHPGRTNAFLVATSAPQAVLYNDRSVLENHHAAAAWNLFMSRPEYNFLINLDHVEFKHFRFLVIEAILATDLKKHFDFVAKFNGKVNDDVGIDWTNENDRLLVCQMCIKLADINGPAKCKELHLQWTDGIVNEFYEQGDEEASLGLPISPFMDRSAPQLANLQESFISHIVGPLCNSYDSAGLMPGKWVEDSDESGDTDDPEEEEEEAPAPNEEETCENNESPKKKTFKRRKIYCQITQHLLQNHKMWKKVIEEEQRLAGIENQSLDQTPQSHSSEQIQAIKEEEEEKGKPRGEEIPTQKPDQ

[12] = target: cGMP-inhibited 3',5'-cyclic phosphodiesterase 3A (Homo sapiens) (UniProt Q14432); experiment: Inhibition of human recombinant PDE3A using cAMP as substrate at 10 uM after 30 mins by HTRF method
[13] = target: 3',5'-cyclic-AMP phosphodiesterase 4D (Homo sapiens) (UniProt Q08499); experiment: Inhibition of human recombinant PDE4D using [3H]-cAMP as substrate at 1 uM after 30 mins by two-step radiometric assay
Sequence of 3',5'-cyclic-AMP phosphodiesterase 4D (Homo sapiens) (Q08499 whole entry): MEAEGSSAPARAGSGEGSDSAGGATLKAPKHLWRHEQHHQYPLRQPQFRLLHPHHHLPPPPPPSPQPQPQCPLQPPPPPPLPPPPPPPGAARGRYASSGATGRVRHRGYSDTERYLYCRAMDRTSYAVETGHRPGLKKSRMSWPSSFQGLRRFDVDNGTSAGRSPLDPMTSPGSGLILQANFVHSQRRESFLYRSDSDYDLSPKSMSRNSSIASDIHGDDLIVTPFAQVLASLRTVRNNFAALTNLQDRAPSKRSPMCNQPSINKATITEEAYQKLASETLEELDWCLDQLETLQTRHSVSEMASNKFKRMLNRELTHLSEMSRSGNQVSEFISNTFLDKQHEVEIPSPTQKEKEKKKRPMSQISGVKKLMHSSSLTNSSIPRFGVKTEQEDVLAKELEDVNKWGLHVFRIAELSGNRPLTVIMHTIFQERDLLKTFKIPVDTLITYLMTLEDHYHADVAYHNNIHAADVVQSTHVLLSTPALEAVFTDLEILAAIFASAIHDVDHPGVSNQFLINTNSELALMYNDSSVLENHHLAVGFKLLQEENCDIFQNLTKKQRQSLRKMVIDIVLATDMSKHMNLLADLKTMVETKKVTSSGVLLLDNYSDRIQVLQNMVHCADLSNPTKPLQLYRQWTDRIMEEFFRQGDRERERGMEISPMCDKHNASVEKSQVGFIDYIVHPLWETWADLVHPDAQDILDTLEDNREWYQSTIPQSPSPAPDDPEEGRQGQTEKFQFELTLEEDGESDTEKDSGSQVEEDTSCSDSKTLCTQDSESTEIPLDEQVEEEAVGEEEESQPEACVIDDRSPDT

[14] = target: 3',5'-cyclic-AMP phosphodiesterase 4D (Homo sapiens) (UniProt Q08499); experiment: Inhibition of human recombinant PDE4D using [3H]-cAMP as substrate at 10 uM after 30 mins by two-step radiometric assay
[15] = target: cGMP-specific 3',5'-cyclic phosphodiesterase (Homo sapiens) (UniProt O76074); experiment: Inhibition of human recombinant PDE5A using […] as substrate at 1 uM after 30 mins by scintillation proximity assay
[16] = target: cGMP-specific 3',5'-cyclic phosphodiesterase (Homo sapiens) (UniProt O76074); experiment: Inhibition of human recombinant PDE5A using […] as substrate at 10 uM after 30 mins by scintillation proximity assay
[17] = target: High affinity 3',5'-cyclic-AMP phosphodiesterase 7A (Homo sapiens) (UniProt Q13946); experiment: Inhibition of human recombinant PDE7A using [3H]-cAMP as substrate at 1 uM after 30 mins by two-step radiometric assay
Sequence of High affinity 3',5'-cyclic-AMP phosphodiesterase 7A (Homo sapiens) (Q13946 whole entry): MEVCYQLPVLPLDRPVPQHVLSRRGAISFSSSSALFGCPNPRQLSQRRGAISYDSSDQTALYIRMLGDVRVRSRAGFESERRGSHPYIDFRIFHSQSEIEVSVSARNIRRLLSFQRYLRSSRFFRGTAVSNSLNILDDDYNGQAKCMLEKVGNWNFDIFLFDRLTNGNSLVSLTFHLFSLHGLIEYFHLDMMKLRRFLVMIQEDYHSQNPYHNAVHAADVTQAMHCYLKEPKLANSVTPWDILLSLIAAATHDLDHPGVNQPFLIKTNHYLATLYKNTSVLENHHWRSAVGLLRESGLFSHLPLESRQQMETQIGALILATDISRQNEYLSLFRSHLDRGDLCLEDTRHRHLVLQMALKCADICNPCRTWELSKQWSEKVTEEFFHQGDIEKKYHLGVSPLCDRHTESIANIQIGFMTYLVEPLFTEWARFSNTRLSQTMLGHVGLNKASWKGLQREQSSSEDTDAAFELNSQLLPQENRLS

[18] = target: High affinity 3',5'-cyclic-AMP phosphodiesterase 7A (Homo sapiens) (UniProt Q13946); experiment: Inhibition of human recombinant PDE7A using [3H]-cAMP as substrate at 10 uM after 30 mins by two-step radiometric assay
[19] = target: Dual 3',5'-cyclic-AMP and -GMP phosphodiesterase 11A (Homo sapiens) (UniProt Q9HCR9); experiment: Inhibition of human recombinant PDE11A using [3H]-cAMP as substrate at 1 uM after 30 mins by two-step radiometric assay
Sequence of Dual 3',5'-cyclic-AMP and -GMP phosphodiesterase 11A (Homo sapiens) (Q9HCR9 whole entry, looked up): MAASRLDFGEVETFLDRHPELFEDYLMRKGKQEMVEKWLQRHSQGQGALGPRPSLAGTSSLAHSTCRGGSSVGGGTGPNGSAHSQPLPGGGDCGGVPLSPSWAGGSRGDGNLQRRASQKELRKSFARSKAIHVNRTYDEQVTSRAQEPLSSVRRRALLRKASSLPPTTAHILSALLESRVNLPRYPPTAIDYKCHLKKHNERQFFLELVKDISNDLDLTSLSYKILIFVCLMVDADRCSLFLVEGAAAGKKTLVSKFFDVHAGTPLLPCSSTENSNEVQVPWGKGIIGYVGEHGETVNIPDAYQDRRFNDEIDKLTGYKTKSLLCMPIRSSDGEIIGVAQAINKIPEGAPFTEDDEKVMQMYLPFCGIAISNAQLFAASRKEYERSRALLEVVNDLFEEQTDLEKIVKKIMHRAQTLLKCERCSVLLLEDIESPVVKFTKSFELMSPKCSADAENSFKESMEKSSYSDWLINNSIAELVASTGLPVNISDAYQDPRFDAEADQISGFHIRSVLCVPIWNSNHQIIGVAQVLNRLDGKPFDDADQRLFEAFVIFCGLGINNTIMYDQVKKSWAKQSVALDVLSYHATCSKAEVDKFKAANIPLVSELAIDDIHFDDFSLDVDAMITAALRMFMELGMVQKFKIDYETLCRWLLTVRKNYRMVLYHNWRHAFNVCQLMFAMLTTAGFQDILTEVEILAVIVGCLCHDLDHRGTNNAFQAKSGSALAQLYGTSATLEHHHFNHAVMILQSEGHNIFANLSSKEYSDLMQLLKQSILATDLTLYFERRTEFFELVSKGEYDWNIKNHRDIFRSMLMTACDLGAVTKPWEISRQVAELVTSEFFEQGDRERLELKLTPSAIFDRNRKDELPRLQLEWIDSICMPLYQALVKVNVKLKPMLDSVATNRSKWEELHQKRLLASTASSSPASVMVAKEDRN

[20] = target: Dual 3',5'-cyclic-AMP and -GMP phosphodiesterase 11A (Homo sapiens) (UniProt Q9HCR9); experiment: Inhibition of human recombinant PDE11A using [3H]-cAMP as substrate at 10 uM after 30 mins by two-step radiometric assay
[21] = Metabolic stability in Wistar rat liver microsomes incubated for 10 mins prior to NADPH addition measured after 60 mins by LC/MS/MS analysis; assay type: ADME; details: read-out: Stability
[22] = Metabolic stability in CD1 mouse liver microsomes incubated for 10 mins prior to NADPH addition measured after 60 mins by LC/MS/MS analysis; assay type: ADME; details: read-out: Stability
[23] = Metabolic stability in Beagle dog liver microsomes incubated for 10 mins prior to NADPH addition measured after 60 mins by LC/MS/MS analysis; assay type: ADME, Canis lupus familiaris; details: read-out: Stability
[24] = Metabolic stability in cynomolgus monkey liver microsomes incubated for 10 mins prior to NADPH addition measured after 60 mins by LC/MS/MS analysis; assay type: ADME, Macaca fascicularis; details: read-out: Stability
[25] = Metabolic stability in human liver microsomes incubated for 10 mins prior to NADPH addition measured after 60 mins by LC/MS/MS analysis; assay type: ADME; details: read-out: Stability
Rattus norvegicus [26] = experiment: Antipsychotic activity in Sprague-Dawley rat prepulse inhibition deficit model assessed as reversal of MK-801-induced effect at 1 mg/kg, ip administered 20 mins prior to MK-801 challenge relative to vehicle-treated control; assay type: functional; set-up: scale not given: the % may be the effect or the level left; details: route intraperitoneal

Structure (SMILES) | inhibition [5] | IC50 [6] | IC50 [7] | IC50 [8] | inhibition [9] | inhibition [10] | inhibition [11] | inhibition [12] | inhibition [13] | inhibition [14] | inhibition [15] | inhibition [16] | inhibition [17] | inhibition [18] | inhibition [19] | inhibition [20] | remaining at 1 h [21] | remaining at 1 h [22] | remaining at 1 h [23] | remaining at 1 h [24] | other results
Cn1cc(-c2ccncc2)c(-c2ccc(OCc3ccc4ccccc4n3)cc2)n1 [MARDEPODECT] |  |  |  |  |  |  |  |  |  |  |  |  |  |  |  |  |  |  |  |  | Activity (Rattus norvegicus [1]): 80%; Activity (Rattus norvegicus [2]): 32%; Activity (Rattus norvegicus [3]): 18%; Activity (Rattus norvegicus [4]): 96%
Cn1cc(-c2ccc(Oc3nccnc3-c3ccncc3)cc2)c2nc3ccccc3cc21 | 97.2% | 8.54 nM | 29.4 nM | 22.6 nM | 5.3% | 34.1% | 0.8% | 2.5% | 0% | 7.6% | 9.4% | 19.3% | 4% | 15.8% | 0.8% | 6.8% | 75% | 75.1% | 92% | 71% | remaining at 1 h [25]: 96%
Cc1nc2n(c(=O)c1CCN1CCC(c3noc4cc(F)ccc34)CC1)CCCC2 [RISPERIDONE] |  |  |  |  |  |  |  |  |  |  |  |  |  |  |  |  |  |  |  |  | Activity (Rattus norvegicus [26]): 67%

Now from value to compound, other results behind:

inhibition [5] | IC50 [6] | IC50 [7] | IC50 [8] | inhibition [9] | inhibition [10] | inhibition [11] | inhibition [12] | inhibition [13] | inhibition [14] | inhibition [15] | inhibition [16] | inhibition [17] | inhibition [18] | inhibition [19] | inhibition [20] | remaining at 1 h [21] | remaining at 1 h [22] | remaining at 1 h [23] | remaining at 1 h [24] | Structure (SMILES) | other results
98% | 1.3 nM | 5.8 nM | 4.1 nM | 16.6% | 69.6% | 0.1% | 7.4% | 0.9% | 18% | 2.2% | 23.2% | 5% | 39.9% | 3% | 29% | 38.4% | 40.2% | 39.7% | 39.8% | Cn1cc(-c2ccc(Oc3ncccc3-c3ccncc3)cc2)c2ncccc21 | remaining at 1 h [25]: 59.6%
95.4% | 2.6 nM | 7.1 nM | 6.7 nM | 12.3% | 12.6% | 0% | 0% | 3.5% | 6.9% | 2.4% | 3.1% | 10.5% | 17.5% | 8.5% | 3% | 64% | 67.1% | 54.7% | 54.5% | Cn1cc(-c2ccc(Oc3ncccc3-c3ccncc3)cc2)c2ncc(Cl)cc21 | remaining at 1 h [25]: 80.9%

Source: ChEMBL document CHEMBL3352660, “Design, synthesis and pharmacological evaluation of novel polycyclic heteroarene ethers as PDE10A inhibitors: part II” (Bioorg Med Chem Lett, 2014)
